Data from ChEMBL document CHEMBL3885881, “DrugMatrix”.

Organism: Rattus norvegicus
Assay: DrugMatrix - Regimen: Daily Repeat
Format: toxicity, organism-based, Sprague-Dawley
Parameters: regimen Daily Repeat, gender Male, age 6-8 weeks
Details: in vivo, po, route oral GAVAGE, vehicle .5 % CMC; for ABSOLUTE BASOPHIL / ABSOLUTE EOSINOPHIL / ABSOLUTE LYMPHOCYTE / ABSOLUTE MONOCYTE / ABSOLUTE SEGMENTED NEUTROPHIL / BASOPHIL / EOSINOPHIL / ERYTHROCYTE COUNT / HEMATOCRIT / HEMOGLOBIN / LEUKOCYTE COUNT / LYMPHOCYTE / MEAN CORPUSCULAR HEMOGLOBIN / MEAN CORPUSCULAR HEMOGLOBIN CONCENTRATION / MEAN CORPUSCULAR VOLUME / MONOCYTE / NEUTROPHIL / NUCLEATED RED BLOOD CELLS / PLATELET COUNT: tissue Blood; for ALANINE AMINOTRANSFERASE / ALBUMIN / ALKALINE PHOSPHATASE / ASPARTATE AMINOTRANSFERASE / BLOOD UREA NITROGEN / CARBON DIOXIDE / CHLORIDE / CHOLESTEROL / CREATINE PHOSPHOKINASE / CREATININE / GLUCOSE / LACTATE DEHYDROGENASE / LIPASE / PHOSPHORUS / POTASSIUM / SODIUM / TOTAL BILIRUBIN / TOTAL PROTEIN / URIC ACID: tissue Plasma
[1] = 25 mg/kg, 72 h, dose level Low, time 3 day
[2] = 25 mg/kg, 120 h, dose level Low, time 5 day
[3] = 1500 mg/kg, 72 h, dose level High, time 3 day
[4] = 1500 mg/kg, 120 h, dose level High, time 5 day

COC(=O)Nc1nc2ccc([S+]([O-])c3ccccc3)cc2[nH]1 (configuration not stated) [OXFENDAZOLE]
ABSOLUTE BASOPHIL [1]: 0 CELLS/uL | ABSOLUTE EOSINOPHIL [1]: 48 CELLS/uL | ABSOLUTE LYMPHOCYTE [1]: 11822 CELLS/uL | ABSOLUTE MONOCYTE [1]: 187.33 CELLS/uL | ABSOLUTE SEGMENTED NEUTROPHIL [1]: 2342.67 CELLS/uL | BASOPHIL [1]: 0% | EOSINOPHIL [1]: 0.33% | ERYTHROCYTE COUNT [1]: 6.05 x10E6/uL | HEMATOCRIT [1]: 36.2% | HEMOGLOBIN [1]: 13.87 G/DL | LEUKOCYTE COUNT [1]: 14.4 x10E3/uL | LYMPHOCYTE [1]: 82% | MEAN CORPUSCULAR HEMOGLOBIN [1]: 22.93 pg | MEAN CORPUSCULAR HEMOGLOBIN CONCENTRATION [1]: 38.33 G/DL | MEAN CORPUSCULAR VOLUME [1]: 59.8 fL | MONOCYTE [1]: 1.33% | NEUTROPHIL [1]: 16.33% | NUCLEATED RED BLOOD CELLS [1]: 0 /100WBC | PLATELET COUNT [1]: 1268.67 x10E3/uL | ALANINE AMINOTRANSFERASE [1]: 56 u/L | ALBUMIN [1]: 4.13 G/DL | ALKALINE PHOSPHATASE [1]: 355 u/L | ASPARTATE AMINOTRANSFERASE [1]: 78.67 u/L | BLOOD UREA NITROGEN [1]: 14 mg/dL | CARBON DIOXIDE [1]: 25 mmol/L | CHLORIDE [1]: 99 MEQ/L | CHOLESTEROL [1]: 78.67 mg/dL | CREATINE PHOSPHOKINASE [1]: 173.33 u/L | CREATININE [1]: 0.15 mg/dL | GLUCOSE [1]: 161.67 mg/dL | LACTATE DEHYDROGENASE [1]: 153 u/L | LIPASE [1]: 10 u/L | PHOSPHORUS [1]: 13.1 mg/dL | POTASSIUM [1]: 8.18 MEQ/L | SODIUM [1]: 142.9 MEQ/L | TOTAL BILIRUBIN [1]: 0.2 mg/dL | TOTAL PROTEIN [1]: 5.77 G/DL | URIC ACID [1]: 2.07 mg/dL | ABSOLUTE BASOPHIL [2]: 0 CELLS/uL | ABSOLUTE EOSINOPHIL [2]: 0 CELLS/uL | ABSOLUTE LYMPHOCYTE [2]: 12550 CELLS/uL | ABSOLUTE MONOCYTE [2]: 0 CELLS/uL | ABSOLUTE SEGMENTED NEUTROPHIL [2]: 983.33 CELLS/uL | BASOPHIL [2]: 0% | EOSINOPHIL [2]: 0% | ERYTHROCYTE COUNT [2]: 5.35 x10E6/uL | HEMATOCRIT [2]: 31.93% | HEMOGLOBIN [2]: 12.77 G/DL | LEUKOCYTE COUNT [2]: 13.53 x10E3/uL | LYMPHOCYTE [2]: 93% | MEAN CORPUSCULAR HEMOGLOBIN [2]: 23.9 pg | MEAN CORPUSCULAR HEMOGLOBIN CONCENTRATION [2]: 40 G/DL | MEAN CORPUSCULAR VOLUME [2]: 59.73 fL | MONOCYTE [2]: 0% | NEUTROPHIL [2]: 7% | NUCLEATED RED BLOOD CELLS [2]: 0 /100WBC | PLATELET COUNT [2]: 856.67 x10E3/uL | ALANINE AMINOTRANSFERASE [2]: 57.67 u/L | ALBUMIN [2]: 4.17 G/DL | ALKALINE PHOSPHATASE [2]: 330.67 u/L | ASPARTATE AMINOTRANSFERASE [2]: 89 u/L | BLOOD UREA NITROGEN [2]: 16 mg/dL | CARBON DIOXIDE [2]: 24 mmol/L | CHLORIDE [2]: 100.67 MEQ/L | CHOLESTEROL [2]: 74 mg/dL | CREATINE PHOSPHOKINASE [2]: 346.33 u/L | CREATININE [2]: 0.21 mg/dL | GLUCOSE [2]: 161.67 mg/dL | LACTATE DEHYDROGENASE [2]: 356.67 u/L | LIPASE [2]: 9 u/L | PHOSPHORUS [2]: 12.83 mg/dL | POTASSIUM [2]: 7.04 MEQ/L | SODIUM [2]: 141.83 MEQ/L | TOTAL BILIRUBIN [2]: 0.2 mg/dL | TOTAL PROTEIN [2]: 5.9 G/DL | URIC ACID [2]: 2.33 mg/dL | ABSOLUTE BASOPHIL [3]: 0 CELLS/uL | ABSOLUTE EOSINOPHIL [3]: 0 CELLS/uL | ABSOLUTE LYMPHOCYTE [3]: 9253.67 CELLS/uL | ABSOLUTE MONOCYTE [3]: 174.67 CELLS/uL | ABSOLUTE SEGMENTED NEUTROPHIL [3]: 671.67 CELLS/uL | BASOPHIL [3]: 0% | EOSINOPHIL [3]: 0% | ERYTHROCYTE COUNT [3]: 5.79 x10E6/uL | HEMATOCRIT [3]: 34.2% | HEMOGLOBIN [3]: 13.37 G/DL | LEUKOCYTE COUNT [3]: 10.1 x10E3/uL | LYMPHOCYTE [3]: 91.67% | MEAN CORPUSCULAR HEMOGLOBIN [3]: 23.07 pg | MEAN CORPUSCULAR HEMOGLOBIN CONCENTRATION [3]: 39.1 G/DL | MEAN CORPUSCULAR VOLUME [3]: 59.03 fL | MONOCYTE [3]: 1.67% | NEUTROPHIL [3]: 6.67% | NUCLEATED RED BLOOD CELLS [3]: 0 /100WBC | PLATELET COUNT [3]: 1138.67 x10E3/uL | ALANINE AMINOTRANSFERASE [3]: 42.33 u/L | ALBUMIN [3]: 4 G/DL | ALKALINE PHOSPHATASE [3]: 328.67 u/L | ASPARTATE AMINOTRANSFERASE [3]: 70.33 u/L | BLOOD UREA NITROGEN [3]: 15.33 mg/dL | CARBON DIOXIDE [3]: 27.33 mmol/L | CHLORIDE [3]: 100.33 MEQ/L | CHOLESTEROL [3]: 67.67 mg/dL | CREATINE PHOSPHOKINASE [3]: 217.33 u/L | CREATININE [3]: 0.17 mg/dL | GLUCOSE [3]: 160.33 mg/dL | LACTATE DEHYDROGENASE [3]: 90 u/L | LIPASE [3]: 9.67 u/L | PHOSPHORUS [3]: 11.6 mg/dL | POTASSIUM [3]: 6.25 MEQ/L | SODIUM [3]: 142.17 MEQ/L | TOTAL BILIRUBIN [3]: 0.1 mg/dL | TOTAL PROTEIN [3]: 5.43 G/DL | URIC ACID [3]: 1.83 mg/dL | ABSOLUTE BASOPHIL [4]: 0 CELLS/uL | ABSOLUTE EOSINOPHIL [4]: 0 CELLS/uL | ABSOLUTE LYMPHOCYTE [4]: 9784.67 CELLS/uL | ABSOLUTE MONOCYTE [4]: 35.33 CELLS/uL | ABSOLUTE SEGMENTED NEUTROPHIL [4]: 380 CELLS/uL | BASOPHIL [4]: 0% | EOSINOPHIL [4]: 0% | ERYTHROCYTE COUNT [4]: 5.39 x10E6/uL | HEMATOCRIT [4]: 32.9% | HEMOGLOBIN [4]: 13.2 G/DL | LEUKOCYTE COUNT [4]: 10.2 x10E3/uL | LYMPHOCYTE [4]: 95.67% | MEAN CORPUSCULAR HEMOGLOBIN [4]: 24.53 pg | MEAN CORPUSCULAR HEMOGLOBIN CONCENTRATION [4]: 40.13 G/DL | MEAN CORPUSCULAR VOLUME [4]: 61.07 fL | MONOCYTE [4]: 0.33% | NEUTROPHIL [4]: 4% | NUCLEATED RED BLOOD CELLS [4]: 0 /100WBC | PLATELET COUNT [4]: 1442.33 x10E3/uL | ALANINE AMINOTRANSFERASE [4]: 41 u/L | ALBUMIN [4]: 4.17 G/DL | ALKALINE PHOSPHATASE [4]: 331.33 u/L | ASPARTATE AMINOTRANSFERASE [4]: 79.67 u/L | BLOOD UREA NITROGEN [4]: 15.33 mg/dL | CARBON DIOXIDE [4]: 27.67 mmol/L | CHLORIDE [4]: 101.67 MEQ/L | CHOLESTEROL [4]: 69.67 mg/dL | CREATINE PHOSPHOKINASE [4]: 228 u/L | CREATININE [4]: 0.16 mg/dL | GLUCOSE [4]: 143 mg/dL | LACTATE DEHYDROGENASE [4]: 165 u/L | LIPASE [4]: 9.33 u/L | PHOSPHORUS [4]: 13.13 mg/dL | POTASSIUM [4]: 6.91 MEQ/L | SODIUM [4]: 146.13 MEQ/L | TOTAL BILIRUBIN [4]: 0.13 mg/dL | TOTAL PROTEIN [4]: 5.77 G/DL | URIC ACID [4]: 1.7 mg/dL
